Reference: patent US20250109139A1, “TRICYCLIC COMPOUND, AND PREPARATION METHOD THEREFOR AND USE THEREOF” (SHANGHAITECH UNIVERSITY, priority 2022, published 2025)
Like-named read-outs stand apart in the source and are kept apart here.

How the values were obtained:
5-HT2A receptors = 5-HT2A receptors (Homo sapiens (Human), UniProt P28223); assay: 5-HT2A receptor radioligand competition binding assay ([3H]-ketanserin)
Method: The affinity of the compounds of the present disclosure for 5-HT2A receptors was determined by a radioligand competition binding assay. In the first step, a cell membrane component containing specific 5-HT2A receptor was prepared. A 10 cm dish was used for transfection with […] of 5-HT2A receptors and 40 μL of PEI. After 48 hours, the 10 cm dish was taken out from the cell incubator and the cultured cells had expressed the 5-HT2A receptors. A vacuum pump was used to suck off the culture medium, 3 mL of lysis buffer was added to each culture dish, and the cells were placed in a 4° C. cold room for 10 minutes. After the cells were detached, the cells were transferred to a 15 mL centrifuge tube and centrifuged at 1500 rpm for 5 minutes at 4° C., and the supernatant was discarded. The cell pellet was transferred to a tissue homogenizer, and 3 mL of lysis buffer was added and fully ground until the cells were broken. Then, cell suspension was equally aliquoted into several EP tubes, centrifuged at 12000 rpm for 5 minutes at 4° C., and the supernatant was discarded. The precipitate was the cell membrane component containing the 5-HT2A receptors. […] First, a standard binding buffer was added to the cell membrane component containing the 5-HT2A receptors, and the cell membrane was disrupted and resuspended with an electric tissue homogenizer. 30 μL of membrane protein suspension was added to each well of a 96-well plate. Then, 30 μL of different drugs were added to the 96-well plate sequentially from bottom to top to ensure that the final drug concentrations were 10^−5 M, 10^−6 M, 10^−7 M, 10^−8 M, 10^−9 M, and 0 M, with two replicates per treatment. Next, 30 μL of [^3H]-ketanserin was added to each well of the 96-well plate. The plate was incubated at room temperature in the dark for 2 hours. Detection was conducted. The machine readout value reflected the amount of [^3H]-ketanserin bound on the membrane, and after further data processing, the affinity Ki values of different compounds for the 5-HT2A receptors were obtained.

[1] = molecular target: 5-hydroxytryptamine 1A (5-HT1A) receptors (Homo sapiens (Human), UniProt P08908); assay: 5-HT1A receptor Gαi1 BRET (G protein trimer dissociation); format: cell-based; settings: relative to endogenous ligand 5-hydroxytryptamine
Chain of 5-hydroxytryptamine 1A (5-HT1A) receptors (P08908 whole entry): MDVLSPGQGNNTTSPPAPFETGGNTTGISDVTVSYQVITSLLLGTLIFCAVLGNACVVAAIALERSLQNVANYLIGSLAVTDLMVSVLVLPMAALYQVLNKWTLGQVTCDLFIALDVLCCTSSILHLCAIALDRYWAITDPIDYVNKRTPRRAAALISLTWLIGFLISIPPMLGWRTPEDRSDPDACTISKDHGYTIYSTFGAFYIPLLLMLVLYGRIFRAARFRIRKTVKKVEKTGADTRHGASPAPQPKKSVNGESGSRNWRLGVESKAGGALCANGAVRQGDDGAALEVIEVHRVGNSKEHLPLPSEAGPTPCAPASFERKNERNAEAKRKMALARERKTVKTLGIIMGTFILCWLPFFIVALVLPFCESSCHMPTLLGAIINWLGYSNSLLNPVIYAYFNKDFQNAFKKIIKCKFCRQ

dopamine D2 receptors [2] = molecular target: T1, dopamine D2 receptors (Homo sapiens (Human), UniProt P14416); assay: Dopamine D2 receptor radioligand competition binding assay ([3H]-Methylspiperone); settings: [3H]-Methylspiperone 0.3 to 0.5 nM, 293T membranes
T1 sequence (P14416 whole entry): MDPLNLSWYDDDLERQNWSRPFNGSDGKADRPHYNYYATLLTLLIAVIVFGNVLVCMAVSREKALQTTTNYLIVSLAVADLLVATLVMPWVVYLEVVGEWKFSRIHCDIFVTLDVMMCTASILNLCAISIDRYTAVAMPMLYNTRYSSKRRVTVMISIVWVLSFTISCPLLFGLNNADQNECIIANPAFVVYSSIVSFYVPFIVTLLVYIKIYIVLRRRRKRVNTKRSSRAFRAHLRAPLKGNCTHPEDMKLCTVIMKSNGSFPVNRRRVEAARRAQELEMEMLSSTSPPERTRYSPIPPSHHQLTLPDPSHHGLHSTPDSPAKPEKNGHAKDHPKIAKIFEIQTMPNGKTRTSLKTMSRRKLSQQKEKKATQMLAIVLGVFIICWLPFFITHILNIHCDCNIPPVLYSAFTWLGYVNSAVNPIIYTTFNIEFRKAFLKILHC
Method: The affinity of the compounds of the present disclosure for dopamine D2 receptors was determined by a radioligand competition binding assay.
In the first step, a cell membrane component containing specific dopamine D2 receptors was prepared. A 10 cm culture dish was used for transfection with […] of dopamine D2 receptors and 40 μL of polyethylenimine (PEI hereafter). […] A vacuum pump was used to suck off the culture medium, 3 mL of lysis buffer was added to each culture dish, and the cells were placed in a 4° C. cold room for 10 minutes. After the cells were detached, the cells were transferred to a 15 mL centrifuge tube and centrifuged at 1500 rpm for 5 minutes at 4° C., and the supernatant was discarded. The cell pellet was transferred to a tissue homogenizer, and 3 mL of lysis buffer was added and fully ground until the cells were broken. Then, cell suspension was equally aliquoted into several EP tubes, centrifuged at 12000 rpm for 5 minutes at 4° C., and the supernatant was discarded. The precipitate was the cell membrane component containing the dopamine D2 receptors.
First, a standard binding buffer was added to the cell membrane component containing the dopamine D2 receptors, and the cell membrane was disrupted and resuspended with an electric tissue homogenizer. 30 μL of membrane protein suspension was added to each well of a 96-well plate. Then, 30 μL of different drugs were added to the 96-well plate sequentially from bottom to top to ensure that the final drug concentrations were 10^−5 M, 10^−6 M, 10^−7 M, 10^−8 M, 10^−9 M, and 0 M, with two replicates per treatment. Next, 30 μL of [3H]-Methylspiperone was added to each well of the 96-well plate. The plate was incubated at room temperature in the dark for 2 hours. Detection was conducted. The machine readout value reflected the amount of [3H]-Methylspiperone bound on the membrane, and after further data processing, the affinity Ki values of different compounds for the dopamine D2 receptors were obtained.

dopamine D2 receptors [3] = molecular target: T1, dopamine D2 receptors; assay: Dopamine D2 receptor β-arrestin2 BRET (recruitment); format: cell-based; settings: for EC50: unit printed only in Cariprazine cell, read-out: β-arrestin2 BRET EC50; for Emax: relative to endogenous ligand dopamine, read-out: β-arrestin2 BRET Emax % ± SEM
Method: (§1) To examine the downstream G-protein signaling pathway mediated by dopamine D2 receptors, on the first day, a 6 cm culture dish was used for transfection with 1 μg of dopamine D2 receptors, 1 μg of Gαi1 containing C-terminal seaweed luciferase (Gαi1-Rluc), 1 μg of Gβ3, 1 μg of Gγ9 containing C-terminal green fluorescent protein (Gγ9-GFP) mixed with 16 μL of PEI. At the same time, in order to examine the downstream β-arrestin2 signaling pathway mediated by dopamine D2 receptors, on the first day, a 6 cm culture dish was used for transfection with […] of dopamine D2 receptors containing C-terminal seaweed luciferase (D2-Rluc), […] of G protein-coupled receptor kinase 2 (GRK2), […] of β-arrestin2 containing N-terminal green fluorescent protein (GFP2-ARRB2) mixed with 14 μL of PEI. The next day, the confluent cells of a 6 cm culture dish were digested and reseeded into a 96-well plate with 100 μL of culture medium added to each well. On the third day, the drugs were added for test. The 96-well plate was taken out from the cell incubator to decant the culture medium, 40 μL of the substrate coelenterazine 400a (final concentration of 5 μM) was added to each well, and then 20 μL of different drugs were added sequentially from left to right to ensure that the final concentration of the drug decreased gradually from bottom to top, with two replicates per treatment. Finally, the prepared samples were loaded on machine for test. The machine readout value reflected the recruitment of β-arrestin2 to the membrane or the dissociation of G protein trimer. The former indicated the degree of activation of the β-arrestin2 signaling pathway downstream of the dopamine D2 receptors, and the latter indicated the degree of activation of the G protein signaling pathway downstream of the dopamine D2 receptors.

dopamine D2 receptors [4] = molecular target: T1, dopamine D2 receptors; assay: Dopamine D2 receptor Gαi1 BRET (G protein trimer dissociation); format: cell-based; settings: for Emax: relative to endogenous ligand dopamine, read-out: Gαi1 BRET Emax % ± SEM
Method: as §1

[5] = read-out: Gαi1 BRET pEC50 ± SEM (converted)
[6] = unit printed only in Cariprazine cell, read-out: Gαi1 BRET EC50
[7] = [3H]-ketanserin, 293T membranes, read-out: Ki

Chain of 5-HT2A receptors (P28223 whole entry): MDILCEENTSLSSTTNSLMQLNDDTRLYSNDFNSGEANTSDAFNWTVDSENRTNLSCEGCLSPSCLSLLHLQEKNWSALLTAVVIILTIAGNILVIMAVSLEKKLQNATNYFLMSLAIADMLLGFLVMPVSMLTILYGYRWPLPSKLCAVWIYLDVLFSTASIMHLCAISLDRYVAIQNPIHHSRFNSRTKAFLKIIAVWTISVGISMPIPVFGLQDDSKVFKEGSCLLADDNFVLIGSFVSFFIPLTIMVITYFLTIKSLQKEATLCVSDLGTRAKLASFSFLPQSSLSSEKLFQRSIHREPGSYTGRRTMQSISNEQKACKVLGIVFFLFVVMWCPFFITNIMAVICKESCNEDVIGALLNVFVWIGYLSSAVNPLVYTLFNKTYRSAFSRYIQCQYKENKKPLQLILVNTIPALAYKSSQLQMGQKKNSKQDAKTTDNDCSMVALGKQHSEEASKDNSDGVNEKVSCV

Structure (SMILES) | Emax [1] [%] | Ki (dopamine D2 receptors [2]; read-out: Affinity Ki) [nM] | EC50 (dopamine D2 receptors [3]) [nM] | Emax (dopamine D2 receptors [3]) [%] | Affinity pKi ± SEM (dopamine D2 receptors [2]) | other results
CCOc1cccc2c3c(oc12)CN(CCCCOc1ccc2ccc(=O)[nH]c2c1)CC3 [I-A16, 7-(4-(8-ethoxy-3,4-dihydrobenzofuro[2,3-c]pyridin-2(1H)-yl)butoxy)quinolin-2(1H)-one] | 85.9 | 16.5 | 11.3 | – | (7.78 ± 0.41) | Ki (5-HT2A receptors): 1320 nM; affinity for 5-HT2A receptors (in words) (5-HT2A receptors): very weak affinity; β-arrestin2 BRET pEC50 ± SEM (dopamine D2 receptors [3]): (7.94 ± 0.11)
CC(C)Oc1cccc2c3c(oc12)CN(CCCCOc1ccc2ccc(=O)[nH]c2c1)CC3 [I-A18, 7-(4-(8-isopropoxy-3,4-dihydrobenzofuro[2,3-c]pyridin-2(1H)-yl)butoxy)quinolin-2(1H)-one] | 81.9 | – | – | – | (7.05 ± 0.09) | –
COc1cccc2c3c(oc12)CN(CC1(O)CCCCC1)CC3 [I-A21, 1-((8-methoxy-3,4-dihydrobenzofuro[2,3-c]pyridin-2(1H)-yl)methyl)cyclohexan-1-ol] | – | 524 | 23.6 | 59 | (6.28 ± 0.28) | EC50 (dopamine D2 receptors [4]; [5]): 2.95 nM; Emax (dopamine D2 receptors [4]): 68%; EC50 (dopamine D2 receptors [4]; [6]): 4.61 nM; affinity for 5-HT2A receptors (in words) (5-HT2A receptors): very weak affinity; Ki (5-HT2A receptors; [7]): > 10000 nM
CCOc1cccc2c3c(oc12)CN(CCCCc1ccc2ccc(=O)[nH]c2c1)CC3 [I-A25] | 78 | – | 54.6 | 78 | – | EC50 (dopamine D2 receptors [4]; [5]): 2.04 nM; Emax (dopamine D2 receptors [4]): 40%; EC50 (dopamine D2 receptors [4]; [6]): 1.32 nM
CCOc1cccc2c3c(oc12)CN(CC1(O)CCCCC1)CC3 [I-A28, 1-((8-ethoxy-3,4-dihydrobenzofuro[2,3-c]pyridin-2(1H)-yl)methyl)cyclohexan-1-ol] | – | 103 | 238 | 82 | (6.99 ± 0.21) | EC50 (dopamine D2 receptors [4]; [5]): 44.7 nM; Emax (dopamine D2 receptors [4]): 27%; EC50 (dopamine D2 receptors [4]; [6]): 32.5 nM; affinity for 5-HT2A receptors (in words) (5-HT2A receptors): very weak affinity; Ki (5-HT2A receptors; [7]): > 10000 nM
CCOc1cccc2c3c(oc12)CN(CCCCOc1ccc2c(c1)NC(=O)CO2)CC3 [I-A30, 6-(4-(8-ethoxy-3,4-dihydrobenzofuro[2,3-c]pyridin-2(1H)-yl)butoxy)-2H-benzo[b][1,4]oxazin-3(4H)-one] | 74.5 | 151 | 23.7 | 52 | – | –
CCOc1cccc2c3c(oc12)CN(CCN1CCc2cc(C)ncc2C1=O)CC3 [I-A38, 2-(2-(8-ethoxy-3,4-dihydrobenzofuro[2,3-c]pyridin-2(1H)-yl)ethyl)-6-methyl-3,4-trihydro-2,7-naphthyridin-1(2H)-one] | – | – | – | – | – | Gαi1 BRET Emax % [1]: 116.2%

Further lines, with some results ahead:

Emax [1] [%] | Ki (dopamine D2 receptors [2]; read-out: Affinity Ki) [nM] | EC50 (dopamine D2 receptors [3]) [nM] | Emax (dopamine D2 receptors [3]) [%] | Structure (SMILES) | Affinity pKi ± SEM (dopamine D2 receptors [2]) | other results
104 | – | – | – | CCOc1cccc2c3c(oc12)CN(CCCOc1ccc2c(c1)OCO2)CC3 [I-A31, 2-(3-(benzo[d][1,3]dioxol-5-yloxy)propyl)-8-ethoxy-1,2,3,4-tetrahydrobenzofuro[2,3-c]pyridine] | – | –
38.4 | 605 | 2.81 | 33 | CCOc1cccc2c3c(oc12)CN(CCC1CC(NC(=O)N(C)C)C1)CC3 (centres unmarked) [I-A34, 3-(3-(2-(8-ethoxy-3,4-dihydrobenzofuro[2,3-c]pyridin-2(1H)-yl)ethyl)cyclobutyl)-1,1-dimethylurea] | – | Ki (dopamine D2 receptors [2]; read-out: Affinity pKi ± SEM (converted)): 617 nM
75.9 | – | 206 | 21 | CCOc1cccc2c3c(oc12)CN(CCCn1ncc(=O)n(C)c1=O)CC3 [I-A44, 2-(3-(8-ethoxy-3,4-dihydrobenzofuro[2,3-c]pyridin-2(1H)-yl)propyl)-4-methyl-1,2,4-triazine-3,5(2H,4H)-dione] | – | –
74.3 | 714 | 25.4 | 30 | CCOc1cccc2c3c(oc12)CN(CCCCN1C(=O)CC(C)(C)CC1=O)CC3 [I-A45, 1-(4-(8-ethoxy-3,4-dihydrobenzofuro[2,3-c]pyridin-2(1H)-yl)butyl)-4,4-dimethylpiperidine-2,6-dione] | (6.14 ± 0.15) | –
98.5 | – | 213 | 31 | CCOc1cccc2c3c(oc12)CN(CCCCN1C(=O)CC2(CCCC2)CC1=O)CC3 [I-A46, 8-(4-(8-ethoxy-3,4-dihydrobenzofuro[2,3-c]pyridin-2(1H)-yl)butyl)-8-azaspiro[4.5]decane-7,9-dione] | – | –
37.9 | 381 | – | – | CCOc1cccc2c3c([nH]c12)CN(CC[C@H]1CC[C@H](NC(=O)N(C)C)CC1)CC3 [I-B8, 3-(trans-4-(2-(8-ethoxy-1,3,4,9-tetrahydro-2H-pyrido[3,4-b]indol-2-yl)ethyl)cyclohexyl)-1,1-dimethylurea] | (6.41 ± 0.16) | –
22.3 | – | – | – | CCOc1cccc2c3c([nH]c12)CN(CCC1CC(NC(=O)N(C)C)C1)CC3 (centres unmarked) [I-B11, 3-(3-(2-(8-ethoxy-1,3,4,9-tetrahydro-2H-pyrido[3,4-b]indol-2-yl)ethyl)cyclobutyl)-1,1-dimethylurea] | – | –
